The test system of the first assay is JJN3 cell line. In words: Apoptosis assay using JJN3 cell line (annexin V/PI). In kind it is cell-based. The settings on record: Homo sapiens, JJN-3; JJN3 cell line, 24 h of treatment. The procedure: Apoptosis was assessed by Annexin V/propidium iodide (Biolegend, 640906, Sigma P4170) staining using LSRII Biosciences, Facscanto. Cell viability was detected by CellTiter-Glo® (My Bio, G3582) according to the manufacture's protocol. Mitochondrial membrane potential was measured by adding Tetramethylrhodamine, ethyl ester (TMRE) (Biosciences, T669) at 20 nM for 30 minutes at 37° C. and assessed by flow cytometry with FACS CANTO II. […]
As for `O=C(CSC1=N[C@@H]2CCCC[C@H]2N1)N1CCOCC1` (racemic) [TTC-01, (±)-trans-2-((2-morpholino-2-oxoethyl)thio)-3a,4,5,6,7,7a-hexahydro-1H-benzo[d]imidazol-3-ium chloride], the IC50 (as a rule, the midpoint of a concentration-inhibition curve) is over 10 µM.

Compound `O=C(CSC1=N[C@@H]2CCCC[C@H]2N1)N1CCCCC1` (racemic) [TTC-03, (±)-trans-2-((2-oxo-2-(piperidin-1-yl)ethyl)thio)-3a,4,5,6,7,7a-hexahydro-1H-benzo[d]imidazol-3-ium chloride] had an IC50 of over 10 µM.

Regarding `CCN(CC)C(=O)CSC1=N[C@@H]2CCCC[C@H]2N1` (racemic) [TTC-04, (±)-trans-2-((2-(diethylamino)-2-oxoethyl)thio)-3a,4,5,6,7,7a-hexahydro-1H-benzo[d]imidazol-3-ium chloride], the IC50 was over 10 µM.

Take `O=C(CSC1=N[C@@H]2CCCC[C@H]2N1)N1CCSCC1` (racemic) [TTC-05, (±)-trans-2-((2-oxo-2-thiomorpholinoethyl)thio)-3a,4,5,6,7,7a-hexahydro-1H-benzo[d]imidazol-3-ium chloride]: the IC50 was under 10 µM.

As for `CS(=O)(=O)N1CCN(C(=O)CSC2=N[C@@H]3CCCC[C@H]3N2)CC1` (racemic) [TTC-06, (±)-trans-2-((2-(4-(methylsulfonyl)piperazin-1-yl)-2-oxoethyl)thio)-3a,4,5,6,7,7a-hexahydro-1H-benzo[d]imidazol-3-ium chloride], the IC50 is over 10 µM.

With `O=C(CSC1=N[C@@H]2CCCC[C@H]2N1)N1CCN(c2ccccc2)CC1` (racemic) [TTC-07, (±)-trans-2-((2-oxo-2-(4-phenylpiperazin-1-yl)ethyl)thio)-3a,4,5,6,7,7a-hexahydro-1H-benzo[d]imidazol-3-ium chloride], the IC50 was over 10 µM.

In the case of `CC(C)(C)OC(=O)N1CCN(C(=O)CSC2=N[C@@H]3CCCC[C@H]3N2)CC1` (racemic) [TTC-08, (±)-trans-2-((2-(4-(tert-butoxycarbonyl)piperazin-1-yl)-2-oxoethyl)thio)-3a,4,5,6,7,7a-hexahydro-1H-benzo[d]imidazol-3-ium chloride], the IC50 was over 10 µM.

In turn, `O=C(CSC1=N[C@@H]2CCCC[C@H]2N1)N1CCC(O)CC1` (racemic) [TTC-15, (±)-trans-2-((2-(4-hydroxypiperidin-1-yl)-2-oxoethyl)thio)-3a,4,5,6,7,7a-hexahydro-1H-benzo[d]imidazol-3-ium chloride] displayed an IC50 of over 10 µM.

As to `O=C(O)C1CCN(C(=O)CSC2=N[C@@H]3CCCC[C@H]3N2)CC1` (racemic) [TTC-16, (±)-trans-2-((2-(4-carboxypiperidin-1-yl)-2-oxoethyl)thio)-3a,4,5,6,7,7a-hexahydro-1H-benzo[d]imidazol-3-ium chloride], the IC50 is over 10 µM.

In turn, `O=C1CN(C(=O)CSC2=N[C@@H]3CCCC[C@H]3N2)CCN1` (racemic) [TTC-17, (±)-trans-2-((2-oxo-2-(3-oxopiperazin-1-yl)ethyl)thio)-3a,4,5,6,7,7a-hexahydro-1H-benzo[d]imidazol-3-ium chloride] displayed an IC50 of over 10 µM.

Consider `O=C(CSC1=N[C@@H]2CCCC[C@H]2N1)Nc1ccccc1` (racemic) [TTC-18, (±)-trans-2-((2-oxo-2-(phenylamino)ethyl)thio)-3a,4,5,6,7,7a-hexahydro-1H-benzo[d]imidazol-3-ium chloride], for which the IC50 is over 10 µM.

On to `CCC1CCN(C(=O)CSC2=N[C@@H]3CCCC[C@H]3N2)CC1` (racemic) [TTC-28, (±)-trans-2-((2-(4-ethylpiperidin-1-yl)-2-oxoethyl)thio)-3a,4,5,6,7,7a-hexahydro-1H-benzo[d]imidazol-3-ium chloride], for which the IC50 was over 10 µM.

For the compound `CCCC1CCN(C(=O)CSC2=N[C@@H]3CCCC[C@H]3N2)CC1` (racemic) [TTC-29, (±)-trans-2-((2-oxo-2-(4-propylpiperidin-1-yl)ethyl)thio)-3a,4,5,6,7,7a-hexahydro-1H-benzo[d]imidazol-3-ium chloride], the IC50 is under 10 µM.

Staying with this assay, now noted: JJN3 cells, 24 hr treatment.
In the case of `O=C(CSC1=N[C@@H]2CCCC[C@H]2N1)N1CCOCC1` (racemic) [TTC-01, (±)-trans-2-((2-morpholino-2-oxoethyl)thio)-3a,4,5,6,7,7a-hexahydro-1H-benzo[d]imidazol-3-ium chloride], the “cell death by annexin V/PI” value is “induces cell death”.

These data come from patent US20250368608A1, “SELECTIVE HDAC6 INHIBITOR” (ROYAL COLLEGE OF SURGEONS IN IRELAND, priority 2021, published 2025).
